Results on 3 compounds are retold here after patent US4139628A, “Amino-spiro[oxa(or thia)cycloalkane-penam]-carboxylic acid derivatives” (U C B, Societe Anonyme, priority 1977, dated 1979).

One experiment deals with beta-lactamase TEM. The experiment can be described thus: hydrolysis kinetics in the presence of beta-lactamase (residual activity). It is filed as biochemical, Gram-negative bacteria. As to conditions: after incubation for 6 minutes.
For experiment [1], the system named is Escherichia coli K 12-44 S. It is filed as cell-based. As to conditions: E.COLI K 12-44S; relative to ampicillin = 1. On the procedure:
It is very sensitive to penicillins due to hyperpermeability.
(§1) The products to be tested are introduced in increasing concentrations into a gelose culture medium in Petri dishes. A multiple inoculator is used to deposit simultaneously drops (10 microliters) of inoculum (suspension of about 10^5 bacteria per ml) onto the surface of the medium. After incubation at 37° C. for 24 hours, the growth of the bacteria is observed. By definition, the MIC is expressed as the minimum concentration of the tested compounds which inhibits the multiplication of the bacteria. In the results which follow, however, the MIC is given as being equal to 1 for the reference compounds and the activity figures given for the tested compounds of general formula (I) are, therefore, relative values. This presentation of the results is more correct and the most reproducible, because, for one and the same bacterial strain, different MIC values can be observed if they are measured at different times. This is bound up with the "seasonal" variations in the strains and their nutrient medium.

Experiment [2] concerns Escherichia coli B AMPI-R. The experiment can be described thus: minimum inhibitory concentration (MIC), gelose culture medium in Petri dishes. It is filed as cell-based. The conditions noted are these: relative MIC (ampicillin = 1) on E. COLI B versus its beta-lactamase hyperproducer mutant. On the procedure: This is a mutant of the preceding strain, which we have produced.
as §1

The target in another experiment is T1, beta-lactamase P 99 (Enterobacter cloacae, UniProt P05364).
T1 construct: source not detailed
T1 sequence (P05364 21-381): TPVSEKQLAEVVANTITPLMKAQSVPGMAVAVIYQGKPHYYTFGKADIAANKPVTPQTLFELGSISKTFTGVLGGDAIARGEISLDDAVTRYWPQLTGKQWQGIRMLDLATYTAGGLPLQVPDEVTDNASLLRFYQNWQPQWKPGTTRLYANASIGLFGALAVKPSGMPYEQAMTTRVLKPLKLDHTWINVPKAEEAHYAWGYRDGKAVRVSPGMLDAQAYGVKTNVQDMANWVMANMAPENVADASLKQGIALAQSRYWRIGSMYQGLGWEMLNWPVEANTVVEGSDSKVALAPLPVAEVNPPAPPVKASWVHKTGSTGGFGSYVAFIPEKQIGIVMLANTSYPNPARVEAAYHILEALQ
The experiment is described as follows: hydrolysis kinetics in the presence of beta-lactamase (residual activity). It is filed as biochemical, Gram-negative bacteria. The conditions noted are these: as compared with ampicillin.

With `N[C@@H](C(=O)NC1C(=O)N2C1SC1(CCOCC1)C2C(=O)O)c1ccccc1` (single isomer, unassigned) [Compound B, 6-(2"-amino-2"-phenylacetamido)-2',3',5',6'-tetrahydro-spiro[penam-2,4'-[4H]pyran]-3-carboxylic acid], the “Remaining activity as percentage” value in the experiment with beta-lactamase TEM was determined as 87%. Further, the “MIC, relative value” in experiment [1] turned out to be 1.9. Further, in experiment [2], the “difference between the activity on E. COLI B and on E. COLI B Ampi-R (factor)” value was 3.5.
On to `NC(C(=O)NC1C(=O)N2C1SC1(CCSCC1)C2C(=O)O)c1ccccc1` (stereo not drawn) [Compound F, 6-(2"-amino-2"-phenylacetamido)-2',3',5',6'-tetrahydro-spiro[penam-2,4'-[4H]thiopyran]-3-carboxylic acid], for which, in experiment [1], the “MIC, relative value” stood at 15. For the same compound, the “resistance to beta-lactamase, in words” value at beta-lactamase P 99 is “increased resistance”.
As for `NC(C(=O)NC1C(=O)N2C1SC1(CC[S+]([O-])CC1)C2C(=O)O)c1ccccc1` (stereo not drawn) [Compound J, 6-(2"-amino-2"-phenylacetamido)-2',3',5',6'-tetrahydro-spiro[penam-2,4'-[4H]thiopyran]-3-carboxylic acid 1'-oxide], the “resistance to beta-lactamase, in words” value on beta-lactamase P 99 is “No change in behavior”.
